Patent US11033549B2, “Use of heterocyclic compounds in the treatment of pigmented skin” (ATIR Holding S.A., priority 2017, dated 2021)

Test system: skin
Test: Effect of topical application of R-55 on skin of female volunteers
Type: in vivo, human
Details: two middle-aged Caucasian female volunteers, daily topical application, after about one month
Procedure: A formulation for topical administration of R-55 (2-((4-(3-hydroxyphenyl)piperazin-1-yl)methyl)quinazolin-4-one) was prepared, comprising 10 mg/ml R-55.
A lipid-based phase was formed which consisted primarily of propylene glycol (a solvent of R-55 and penetration enhancer), along with Gelucire® 44/14 lauroyl macrogolglycerides (a solubilizer of R-55), Gelucire® 50/13 stearoyl macrogolglycerides (a sustained release agent), phosphatidyl choline (a surfactant), Labrasol® caprylocaproyl macrogolglycerides (a co-surfactant and penetration enhancer), Lauroglycol™ 90 (a solubilizer of R-55, co-surfactant and penetration enhancer), and vitamin E TPGS (a stabilizer). The ingredients were mixed by stirring at a temperature in a range of from 40° C. to 60° C. until the phosphatidyl choline and R-55 were completely dissolved, as indicated by obtaining a clear solution.
An aqueous solution of a carbomer (Carbopol® Ultrez 10) was added to the lipid-based phase with R-55 to obtain 100 grams of a suspension, which was stirred continuously at room temperature. A gel-like water-in-oil emulsion was formed, with relatively round aqueous droplets dispersed in a lipophilic phase, and the emulsion was stable for at least 2 weeks at room temperature. […]

In the case of `O=c1nc(CN2CCN(c3cccc(O)c3)CC2)[nH]c2ccccc12` [R-55, 2-((4-(3-hydroxyphenyl)piperazin-1-yl)methyl)quinazolin-4-one], the skin pigmentation (10 mg/ml R-55, face and behind the ear) is reported as “noticeably less pigmented” and the skin appearance (10 mg/ml R-55) is reported as “overall fresher, younger appearance”.
